Results from US20250236902A1 (priority 2022, published 2025).
Where two headings read alike, the source gives them in different places.

Legend:
H3N2 NA = type: biochemical, influenza H3N2
[1] = test system: 3NACP (Clostridium perfringens NA); type: biochemical; conditions: 3 mU/mL 3NACP; 1 μM inhibitor vs without
[2] = test system: 3NACP (Clostridium perfringens NA); type: binding; conditions: 0.3 mU/mL 3NACP

CC(=O)N[C@H]1[C@H]([C@H](O)[C@H](O)CO)OC(C(=O)O)=C[C@@H]1N=C(N)N [Zanamivir]
inhibition effect on enzymatic response of AuE-H3 to H3N2 NA (normalized RCT) (H3N2 NA): strongest effect

CCC(CC)[C@H](NC(C)=O)[C@@H]1[C@H](O)[C@@H](C(=O)O)C[C@H]1N=C(N)N [Peramivir]
inhibition effect on enzymatic response of AuE-H3 to H3N2 NA (normalized RCT) (H3N2 NA): moderate inhibition effect

CCOC(=O)C1=C[C@@H](OC(CC)CC)[C@H](NC(C)=O)[C@@H](N)C1 [Oseltamivir]
inhibition effect on enzymatic response of AuE-H3 to H3N2 NA (normalized RCT) (H3N2 NA): weak inhibition effect
impedimetric response of AuE-H3 to 3NACP (1/Normalized RCT) with inhibitor [1]: decrease in response
adsorption response of GCE-H3 to 3NACP (Normalized RCT) with inhibitor ([2]; 0.1 μM inhibitor, vs 0 μM): lower adsorption response
adsorption response of GCE-H3 to 3NACP (Normalized RCT) with inhibitor ([2]; 1 μM inhibitor): further decrease in response
